The target in data set [1] is T1, rat histamine H3 receptor (Rattus norvegicus, UniProt Q9QYN8).
T1 construct: encoding the entire 445-amino-acid rat histamine H3 receptor; expressed in transfected cells; membrane preparation
The data set is described as follows: Rat H3 radioligand binding ([3H]-N-alpha-methylhistamine, SPA). The conditions noted are these: rat H3 binding, Table D; read-out: Rat H3 Ki. The essentials: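 Membranes from CHO-A3 cells stably expressing full-length rat H3 receptor (10 μg protein/well) incubated 4 h at room temperature, protected from light, with ~1 nM [3H]-N-alpha-methylhistamine and compound (0.01 nM-30 μM) in 50 mM Tris HCl pH 7.4, 5 mM MgCl2, 0.1% BSA. Binding read by SPA; 10 μM clobenpropit defined non-specific binding.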

A further data set deals with T2, human H3 receptor (Homo sapiens, UniProt Q9Y5N1).
T2 construct: expressed in transfected cells
The data set is described as follows: Human H3 radioligand binding ([3H]-N-alpha-methylhistamine, SPA). The conditions noted are these: human H3 binding, Table D; read-out: Human H3 Ki. The essentials:
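SPA competition binding on membranes from CHO cells stably expressing human H3 receptor (10 μg protein/well) with ~1 nM [3H]-N-alpha-methylhistamine and compound at 0.01 nM-30 μM. Incubation 4 h at room temperature in 50 mM Tris-HCl pH 7.4, 5 mM MgCl2, 0.1% BSA; non-specific binding defined with 10 μM clobenpropit.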

A word on the Ki: it is a dissociation constant, usually derived from enzyme kinetics or from competition with a known ligand. What is called melting point is the temperature of the solid-liquid transition.

The structures appear in SMILES notation.

T1 sequence (Q9QYN8 whole entry): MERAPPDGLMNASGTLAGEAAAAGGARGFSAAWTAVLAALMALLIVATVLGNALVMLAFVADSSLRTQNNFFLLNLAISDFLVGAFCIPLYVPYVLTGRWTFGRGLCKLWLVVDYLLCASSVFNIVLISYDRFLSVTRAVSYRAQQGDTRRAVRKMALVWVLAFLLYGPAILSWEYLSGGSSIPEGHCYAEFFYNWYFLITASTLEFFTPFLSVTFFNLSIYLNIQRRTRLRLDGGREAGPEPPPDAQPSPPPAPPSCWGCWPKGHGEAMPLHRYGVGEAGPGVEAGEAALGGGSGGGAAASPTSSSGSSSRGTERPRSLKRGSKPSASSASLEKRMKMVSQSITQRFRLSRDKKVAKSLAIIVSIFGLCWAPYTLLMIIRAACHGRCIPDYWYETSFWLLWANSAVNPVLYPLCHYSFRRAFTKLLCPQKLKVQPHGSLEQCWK
T2 sequence (Q9Y5N1 whole entry): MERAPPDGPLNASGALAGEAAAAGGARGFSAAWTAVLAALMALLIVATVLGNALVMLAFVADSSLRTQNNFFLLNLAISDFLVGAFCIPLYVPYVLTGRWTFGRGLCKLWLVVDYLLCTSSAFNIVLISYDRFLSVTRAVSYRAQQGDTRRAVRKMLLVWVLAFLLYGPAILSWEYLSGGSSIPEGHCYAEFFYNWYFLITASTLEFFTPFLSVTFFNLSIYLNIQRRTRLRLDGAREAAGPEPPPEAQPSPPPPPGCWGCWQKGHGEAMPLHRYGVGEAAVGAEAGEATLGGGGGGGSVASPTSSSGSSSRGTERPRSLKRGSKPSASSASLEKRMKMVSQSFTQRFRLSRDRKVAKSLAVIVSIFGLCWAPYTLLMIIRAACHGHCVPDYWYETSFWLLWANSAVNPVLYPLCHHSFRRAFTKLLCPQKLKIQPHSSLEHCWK

For `Cc1nnc(C2CCC(c3ccc4c(c3)COC3(CCN(C5CCC5)CC3)O4)CC2)o1` (stereo not drawn) [Example 707], the melting point lay in the range of 62.4 to 64.7 °C. Besides, the Ki in data set [1] is < 0.2 µM. In addition, the inhibition constant (Ki) at human H3 receptor was < 0.2 µM.
As for `COCCn1cc(-c2ccc3c(c2)COC2(CCN(C4CCC4)CC2)O3)ccc1=O` [Example 708], the melting point was in the range of 141 to 142 °C. Besides, in data set [1], the inhibition constant (Ki) is < 0.2 µM. Further, the inhibition constant Ki on human H3 receptor is < 0.2 µM.
On to `Cc1cc(=O)n(C)cc1-c1ccc2c(c1)COC1(CCN(C3CCC3)CC1)O2` [Example 709], for which the melting point lay within 151 to 154 °C. In addition, in data set [1], the inhibition constant (Ki) was < 0.2 µM. On human H3 receptor, the inhibitory constant (Ki) was < 0.2 µM.
`O=c1ccc(-c2ccc3c(c2)COC2(CCN(C4CCC4)CC2)O3)cn1CC(F)(F)F` [Example 710] yielded a melting point of 158 to 160 °C. In addition, in data set [1], the Ki is < 0.2 µM. In addition, the Ki on human H3 receptor is < 0.2 µM.
Turning to `COc1ccc(-c2ccc3c(c2)COC2(CCN(CCC4CCOCC4)CC2)O3)cn1` [Example 711], the melting point fell in the range of 143 to 145 °C. For the same compound, the Ki in data set [1] is > 1 µM. For the same compound, the inhibition constant Ki on human H3 receptor was > 1 µM.
Regarding `COc1cc(C(N)=O)ccc1-c1ccc2c(c1)COC1(CCN(C3CCC3)CC1)O2` [Example 712], the melting point lay within 122 to 124 °C. Moreover, the inhibition constant (Ki) in data set [1] is < 0.2 µM. Further, the Ki on human H3 receptor is < 0.2 µM.
In the case of `COc1ccc(-c2ccc3c(c2)COC2(CCN(C4COC4)CC2)O3)cn1` [Example 713], the melting point was in the range of 162 to 164 °C. The Ki in data set [1] was > 1 µM. Also, on human H3 receptor, the inhibition constant Ki was 0.2 to 1 µM.
`COc1ncc(-c2ccc3c(c2)COC2(CCN(C4CCC4)CC2)O3)cc1F` [Example 714] came in with a melting point of 175 to 177 °C. Moreover, in data set [1], the Ki is < 0.2 µM. The inhibition constant Ki at human H3 receptor is < 0.2 µM.
As for `NC(=O)c1ccc(-c2ccc3c(c2)COC2(CCN(C4CCC4)CC2)O3)c(Cl)c1` [Example 715], the melting point fell in the range of 112 to 114 °C. The Ki in data set [1] is < 0.2 µM. Also, the inhibition constant Ki on human H3 receptor is < 0.2 µM.
`COc1ccc(-c2ccc3c(c2)COC2(CCN(CC4CCOCC4)CC2)O3)cn1` [Example 716] yielded a melting point of 151 to 153 °C. The inhibitory constant (Ki) in data set [1] is > 1 µM. Further, on human H3 receptor, the inhibitory constant (Ki) is > 1 µM.
`COc1ccc(-c2ccc3c(c2)COC2(CCN(C4CC(CO)C4)CC2)O3)cn1` (stereo not drawn) [Example 717]: the melting point fell in the range of 123 to 125 °C. The Ki in data set [1] lay within 0.2 to 1 µM. Besides, on human H3 receptor, the inhibitory constant (Ki) was in the range of 0.2 to 1 µM.
Consider `O=c1ccc(-c2ccc3c(c2)COC2(CCN(C4COC4)CC2)O3)c[nH]1` [Example 718], for which the melting point is 262 to 264 °C. Also, the Ki in data set [1] was > 1 µM. In addition, the Ki at human H3 receptor was > 1 µM.
In turn, `CC(C)n1cc(-c2ccc3c(c2)COC2(CCN(C4CCC4)CC2)O3)ccc1=O` [Example 719] came in with a melting point of 176 to 177 °C. In addition, the Ki in data set [1] is < 0.2 µM. For the same compound, the inhibition constant Ki on human H3 receptor was < 0.2 µM.
As to `O=c1ccc(-c2ccc3c(c2)COC2(CCN(C4CCC4)CC2)O3)cn1CCO` [Example 720], the melting point is 129 to 130 °C. For the same compound, the inhibition constant Ki in data set [1] is < 0.2 µM. Further, the Ki at human H3 receptor is < 0.2 µM.
The compound `O=c1ccc(-c2ccc3c(c2)COC2(CCN(CC4CCOCC4)CC2)O3)c[nH]1` [Example 722] showed a melting point of 245 to 248 °C. The inhibitory constant (Ki) in data set [1] is > 1 µM. Also, at human H3 receptor, the Ki fell in the range of 0.2 to 1 µM.
With `O=c1ccc(-c2ccc3c(c2)COC2(CCN(C4CCOCC4)CC2)O3)c[nH]1` [Example 723], the melting point was 230 to 232 °C. In addition, in data set [1], the Ki was < 0.2 µM. Further, at human H3 receptor, the Ki was < 0.2 µM.
Compound `COc1ccc(-c2ccc3c(c2)COC2(CCN(C4CCOC4)CC2)O3)cn1` (stereo not drawn) [Example 725] registered a melting point of 139 to 141 °C. Further, the inhibition constant Ki in data set [1] lay in the range of 0.2 to 1 µM. For the same compound, the inhibition constant (Ki) at human H3 receptor fell in the range of 0.2 to 1 µM.
Compound `COc1ccc(-c2ccc3c(c2)COC2(CCN(C4CCC4)CC2)O3)c(C)n1` [Example 726] returned a melting point of 131 to 133 °C. The inhibitory constant (Ki) in data set [1] was < 0.2 µM. At human H3 receptor, the Ki is < 0.2 µM.
`O=c1[nH]cc(-c2ccc3c(c2)COC2(CCN(C4CCC4)CC2)O3)cc1F` [Example 727] displayed a melting point of 200 to 202 °C. The Ki in data set [1] was < 0.2 µM. For the same compound, the Ki on human H3 receptor was < 0.2 µM.
Take `CCSc1cc(-c2ccc3c(c2)COC2(CCN(C4CCC4)CC2)O3)c[nH]c1=O` [Example 728]: the melting point fell in the range of 241 to 243 °C. Moreover, in data set [1], the inhibitory constant (Ki) is < 0.2 µM. Besides, the inhibition constant (Ki) on human H3 receptor is < 0.2 µM.
The compound `O=c1ccc(-c2ccc3c(c2)COC2(CCN(C4CCOC4)CC2)O3)c[nH]1` (stereo not drawn) [Example 729] came in with a melting point of 222 to 226 °C. The Ki in data set [1] was 0.2 to 1 µM. For the same compound, the Ki on human H3 receptor is 0.2 to 1 µM.
In turn, `c1cc(-c2ccc3c(c2)COC2(CCN(C4CCC4)CC2)O3)[nH]n1` [Example 730] yielded a melting point of 140 to 141 °C. The Ki in data set [1] was < 0.2 µM. Besides, the Ki on human H3 receptor is < 0.2 µM.
In turn, `Cc1cnc(-c2ccc3c(c2)COC2(CCN(C4CCC4)CC2)O3)c(C)n1` [Example 731] registered a melting point of 224 to 225 °C. In addition, the Ki in data set [1] is < 0.2 µM. For the same compound, the Ki on human H3 receptor is < 0.2 µM.
`COc1ccc(-c2ccc3c(c2)COC2(CCN(C(C)(C)C)CC2)O3)cn1` [Example 732] displayed a melting point of 152 to 154 °C. In addition, the Ki in data set [1] was < 0.2 µM. At human H3 receptor, the inhibition constant (Ki) was < 0.2 µM.
Consider `CC(C)(C)N1CCC2(CC1)OCc1cc(-c3ccc(=O)[nH]c3)ccc1O2` [Example 733], for which the melting point lay in the range of 241 to 243 °C. Besides, the inhibition constant Ki in data set [1] was < 0.2 µM. On human H3 receptor, the Ki was < 0.2 µM.
In turn, `COc1ccc(-c2ccc3c(c2)COC2(CCN(C4CC(C(=O)O)C4)CC2)O3)cn1` (stereo not drawn) [Example 734] yielded a melting point of 260 to 262 °C. In addition, the Ki in data set [1] is > 1 µM. Besides, the inhibition constant (Ki) on human H3 receptor is > 1 µM.
For `CN(C)C(=O)C1CC(N2CCC3(CC2)OCc2cc(-c4ccc(=O)[nH]c4)ccc2O3)C1` (stereo not drawn) [Example 735], the melting point fell in the range of 247 to 249 °C. Moreover, the inhibition constant Ki in data set [1] was > 1 µM. In addition, the Ki on human H3 receptor was > 1 µM.
As for `Cc1[nH]c(=O)ccc1-c1ccc2c(c1)COC1(CCN(C3CCC3)CC1)O2` [Example 736], the melting point was 191 to 193 °C. Besides, in data set [1], the Ki was < 0.2 µM. At human H3 receptor, the inhibitory constant (Ki) was < 0.2 µM.
In turn, `O=c1ccc(-c2ccc3c(c2)COC2(CCN(C4CCC4)CC2)O3)cn1C(F)F` [Example 737] returned a melting point of 125 to 127 °C. The Ki in data set [1] was < 0.2 µM. For the same compound, on human H3 receptor, the Ki was < 0.2 µM.
`Cc1noc(C)c1C(=O)N1CCN(c2ccc3c(c2)COC2(CCN(C4CCC4)CC2)O3)C(=O)C1` [Example 738] yielded a melting point of 103 to 106 °C. Also, the Ki in data set [1] is < 0.2 µM. For the same compound, at human H3 receptor, the Ki was < 0.2 µM.
Consider `CCC(=O)N1CCN(c2ccc3c(c2)COC2(CCN(C4CCC4)CC2)O3)C(=O)C1` [Example 739], for which the melting point lay in the range of 146 to 148 °C. For the same compound, the Ki in data set [1] is < 0.2 µM. Also, the Ki at human H3 receptor is < 0.2 µM.
Compound `Cn1nccc1-c1ccc2c(c1)COC1(CCN(C3CCC3)CC1)O2` [Example 740] displayed a melting point of 107 to 109 °C. Moreover, in data set [1], the inhibition constant Ki was < 0.2 µM. Also, the Ki on human H3 receptor is < 0.2 µM.
On to `COc1cc(-c2ccc3c(c2)COC2(CCN(C4CCC4)CC2)O3)ccc1C(N)=O` [Example 742], for which the melting point lay within 212 to 214 °C. Besides, in data set [1], the inhibition constant (Ki) is < 0.2 µM. Further, the Ki at human H3 receptor is < 0.2 µM.

For the origin of these results see US8513232B2, “Substituted spirocyclic piperidine derivatives as histamine-3 (H3) receptor ligands” (Cephalon, Inc., priority 2008, dated 2013).
